The values below come from ChEMBL document CHEMBL5291721, “A preclinical secondary pharmacology resource illuminates target-adverse drug reaction associations of marketed drugs” (Nat Commun, 2023).

The target in data set [1] is Motilin receptor (Homo sapiens, UniProt O43193).
Data set [2] deals with T1, Alpha-2A adrenergic receptor (Homo sapiens, UniProt P08913).
T1 sequence (P08913 whole entry): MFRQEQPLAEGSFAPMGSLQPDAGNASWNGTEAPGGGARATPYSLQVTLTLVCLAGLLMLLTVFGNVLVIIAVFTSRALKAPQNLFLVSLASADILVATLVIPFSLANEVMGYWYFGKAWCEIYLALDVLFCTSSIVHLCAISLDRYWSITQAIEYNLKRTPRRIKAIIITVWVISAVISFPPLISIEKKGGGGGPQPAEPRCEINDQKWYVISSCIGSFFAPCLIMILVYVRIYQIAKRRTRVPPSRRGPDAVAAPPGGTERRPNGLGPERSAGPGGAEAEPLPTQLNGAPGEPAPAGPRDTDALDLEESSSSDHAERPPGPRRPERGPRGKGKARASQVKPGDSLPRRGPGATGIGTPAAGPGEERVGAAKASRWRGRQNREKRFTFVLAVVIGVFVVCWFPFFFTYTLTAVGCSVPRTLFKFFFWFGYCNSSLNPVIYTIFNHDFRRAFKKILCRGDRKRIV
It counts as functional, cell-based.

The target of data set [3] is D(3) dopamine receptor (Homo sapiens, UniProt P35462).
Data set [4] has as its target Sodium-dependent noradrenaline transporter (Homo sapiens, UniProt P23975).
In data set [5] the target is T2, Prostaglandin G/H synthase 1 (Rattus norvegicus, UniProt Q63921).
T2 sequence (Q63921 whole entry): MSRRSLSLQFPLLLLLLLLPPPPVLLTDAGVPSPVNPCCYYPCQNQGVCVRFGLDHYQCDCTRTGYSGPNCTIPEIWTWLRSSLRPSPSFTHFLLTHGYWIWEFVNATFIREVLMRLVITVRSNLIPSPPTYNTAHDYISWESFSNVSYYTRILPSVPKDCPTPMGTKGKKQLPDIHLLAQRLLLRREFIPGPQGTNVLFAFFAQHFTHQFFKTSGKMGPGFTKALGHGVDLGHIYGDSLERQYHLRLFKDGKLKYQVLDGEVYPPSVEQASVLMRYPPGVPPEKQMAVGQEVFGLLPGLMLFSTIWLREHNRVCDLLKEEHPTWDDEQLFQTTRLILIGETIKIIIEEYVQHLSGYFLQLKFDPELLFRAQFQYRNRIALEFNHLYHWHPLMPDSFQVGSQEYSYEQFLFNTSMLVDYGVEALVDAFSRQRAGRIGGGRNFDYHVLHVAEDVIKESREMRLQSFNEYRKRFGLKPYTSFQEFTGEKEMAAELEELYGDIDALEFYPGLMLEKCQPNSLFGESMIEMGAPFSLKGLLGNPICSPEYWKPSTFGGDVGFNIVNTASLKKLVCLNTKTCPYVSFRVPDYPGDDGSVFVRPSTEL
It counts as functional.

Data set [6] has as its target Cannabinoid receptor 1 (Homo sapiens, UniProt P21554). The format is functional, cell-based.
Data set [7] deals with T3, 5-hydroxytryptamine receptor 3A (Homo sapiens, UniProt P46098).
T3 sequence (P46098 whole entry): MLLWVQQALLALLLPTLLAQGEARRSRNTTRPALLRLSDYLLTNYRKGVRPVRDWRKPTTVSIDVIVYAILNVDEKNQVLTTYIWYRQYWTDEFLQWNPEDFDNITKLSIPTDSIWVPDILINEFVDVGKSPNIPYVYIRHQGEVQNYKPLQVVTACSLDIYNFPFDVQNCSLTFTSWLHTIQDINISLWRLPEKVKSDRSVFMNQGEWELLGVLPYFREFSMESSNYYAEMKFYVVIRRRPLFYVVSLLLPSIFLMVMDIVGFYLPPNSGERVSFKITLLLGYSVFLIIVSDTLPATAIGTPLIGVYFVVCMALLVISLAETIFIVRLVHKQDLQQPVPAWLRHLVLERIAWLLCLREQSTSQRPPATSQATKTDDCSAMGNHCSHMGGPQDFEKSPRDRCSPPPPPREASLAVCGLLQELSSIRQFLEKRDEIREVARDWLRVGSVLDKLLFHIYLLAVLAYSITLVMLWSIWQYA
It counts as functional.

The target of data set [8] is T4, Alpha-1A adrenergic receptor (Homo sapiens, UniProt P35348).
T4 sequence (P35348 whole entry): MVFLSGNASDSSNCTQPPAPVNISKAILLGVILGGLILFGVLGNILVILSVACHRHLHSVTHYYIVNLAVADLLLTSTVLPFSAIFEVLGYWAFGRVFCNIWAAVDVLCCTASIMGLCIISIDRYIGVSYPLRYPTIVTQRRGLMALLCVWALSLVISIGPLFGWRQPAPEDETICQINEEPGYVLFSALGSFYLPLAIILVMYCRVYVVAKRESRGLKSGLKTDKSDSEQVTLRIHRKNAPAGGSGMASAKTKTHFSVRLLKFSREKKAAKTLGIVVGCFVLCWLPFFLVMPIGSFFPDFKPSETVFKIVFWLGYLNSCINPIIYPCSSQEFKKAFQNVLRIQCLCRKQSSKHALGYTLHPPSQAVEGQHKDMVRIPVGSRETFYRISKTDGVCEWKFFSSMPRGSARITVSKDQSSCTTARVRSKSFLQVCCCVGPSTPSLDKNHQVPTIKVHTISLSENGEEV
It counts as functional, cell-based.

Data set [9] concerns the target T4, Alpha-1A adrenergic receptor. It counts as functional, cell-based. The source holds these as a separate data set.
In data set [10] the target is Neuronal acetylcholine receptor subunit alpha-4 (Homo sapiens, UniProt P43681).
The target in data set [11] is Voltage-gated inwardly rectifying potassium channel KCNH2 (Homo sapiens, UniProt Q12809). The format is functional.
Further: assay procedure not described here.

Sequence of Neuronal acetylcholine receptor subunit alpha-4 (P43681 whole entry): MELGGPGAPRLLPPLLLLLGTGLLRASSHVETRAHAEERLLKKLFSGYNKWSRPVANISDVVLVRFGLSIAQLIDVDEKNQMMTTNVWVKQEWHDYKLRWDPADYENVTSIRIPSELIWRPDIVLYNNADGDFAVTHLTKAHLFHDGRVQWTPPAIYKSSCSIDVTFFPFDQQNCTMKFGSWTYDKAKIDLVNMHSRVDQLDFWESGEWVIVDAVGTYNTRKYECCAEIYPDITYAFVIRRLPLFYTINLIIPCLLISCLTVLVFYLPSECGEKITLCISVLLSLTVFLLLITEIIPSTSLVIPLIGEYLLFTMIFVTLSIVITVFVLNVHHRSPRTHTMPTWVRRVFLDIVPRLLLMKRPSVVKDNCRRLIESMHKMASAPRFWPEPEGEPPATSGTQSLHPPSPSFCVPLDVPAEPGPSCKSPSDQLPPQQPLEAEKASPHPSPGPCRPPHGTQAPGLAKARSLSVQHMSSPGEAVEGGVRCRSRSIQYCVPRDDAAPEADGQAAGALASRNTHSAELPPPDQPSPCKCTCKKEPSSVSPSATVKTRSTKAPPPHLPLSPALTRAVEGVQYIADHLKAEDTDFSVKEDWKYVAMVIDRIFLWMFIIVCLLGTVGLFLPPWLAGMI
Sequence of Sodium-dependent noradrenaline transporter (P23975 whole entry): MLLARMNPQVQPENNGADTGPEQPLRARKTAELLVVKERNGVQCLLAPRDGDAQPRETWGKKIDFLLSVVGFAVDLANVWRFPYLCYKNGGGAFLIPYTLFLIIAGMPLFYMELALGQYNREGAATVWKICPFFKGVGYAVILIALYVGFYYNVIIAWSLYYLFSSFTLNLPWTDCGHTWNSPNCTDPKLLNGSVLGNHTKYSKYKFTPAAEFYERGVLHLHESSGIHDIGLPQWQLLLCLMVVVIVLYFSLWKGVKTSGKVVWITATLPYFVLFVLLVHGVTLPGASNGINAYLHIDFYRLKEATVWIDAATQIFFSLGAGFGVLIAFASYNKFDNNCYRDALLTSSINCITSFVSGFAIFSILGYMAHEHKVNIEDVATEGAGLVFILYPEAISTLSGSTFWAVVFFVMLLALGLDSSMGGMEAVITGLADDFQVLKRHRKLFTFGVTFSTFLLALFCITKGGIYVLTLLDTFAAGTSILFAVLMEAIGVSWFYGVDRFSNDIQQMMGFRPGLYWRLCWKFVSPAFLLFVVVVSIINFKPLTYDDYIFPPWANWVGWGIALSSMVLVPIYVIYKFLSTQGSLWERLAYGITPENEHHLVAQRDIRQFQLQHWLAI
Sequence of Voltage-gated inwardly rectifying potassium channel KCNH2 (Q12809 whole entry): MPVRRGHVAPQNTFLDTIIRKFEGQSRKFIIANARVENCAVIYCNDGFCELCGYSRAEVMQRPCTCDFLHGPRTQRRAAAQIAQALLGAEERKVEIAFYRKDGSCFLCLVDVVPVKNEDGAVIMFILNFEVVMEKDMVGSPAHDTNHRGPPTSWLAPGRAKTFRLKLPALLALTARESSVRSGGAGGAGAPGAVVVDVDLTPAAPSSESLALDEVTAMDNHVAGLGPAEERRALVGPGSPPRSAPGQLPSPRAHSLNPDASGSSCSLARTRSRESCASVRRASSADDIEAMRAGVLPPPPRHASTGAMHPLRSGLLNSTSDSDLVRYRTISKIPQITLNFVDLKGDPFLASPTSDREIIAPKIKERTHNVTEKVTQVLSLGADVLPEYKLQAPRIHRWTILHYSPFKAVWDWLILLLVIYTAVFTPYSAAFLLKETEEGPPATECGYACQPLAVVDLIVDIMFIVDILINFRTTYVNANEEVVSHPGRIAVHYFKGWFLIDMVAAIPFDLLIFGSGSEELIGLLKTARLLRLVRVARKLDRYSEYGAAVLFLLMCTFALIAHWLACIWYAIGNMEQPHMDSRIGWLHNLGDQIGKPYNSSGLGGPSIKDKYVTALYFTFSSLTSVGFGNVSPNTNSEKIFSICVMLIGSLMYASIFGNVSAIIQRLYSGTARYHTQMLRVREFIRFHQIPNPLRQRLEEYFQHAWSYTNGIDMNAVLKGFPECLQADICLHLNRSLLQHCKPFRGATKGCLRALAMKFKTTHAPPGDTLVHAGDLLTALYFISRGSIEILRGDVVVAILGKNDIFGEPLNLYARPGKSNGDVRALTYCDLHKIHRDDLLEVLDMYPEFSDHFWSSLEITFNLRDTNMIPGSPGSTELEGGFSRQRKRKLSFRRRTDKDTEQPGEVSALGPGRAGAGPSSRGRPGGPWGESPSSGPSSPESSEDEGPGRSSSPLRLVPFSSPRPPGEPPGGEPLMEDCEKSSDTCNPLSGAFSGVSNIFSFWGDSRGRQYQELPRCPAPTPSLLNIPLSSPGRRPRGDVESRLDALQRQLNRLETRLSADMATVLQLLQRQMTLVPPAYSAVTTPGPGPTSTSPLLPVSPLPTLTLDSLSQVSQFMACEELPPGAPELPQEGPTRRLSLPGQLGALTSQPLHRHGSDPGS
Sequence of D(3) dopamine receptor (P35462 whole entry): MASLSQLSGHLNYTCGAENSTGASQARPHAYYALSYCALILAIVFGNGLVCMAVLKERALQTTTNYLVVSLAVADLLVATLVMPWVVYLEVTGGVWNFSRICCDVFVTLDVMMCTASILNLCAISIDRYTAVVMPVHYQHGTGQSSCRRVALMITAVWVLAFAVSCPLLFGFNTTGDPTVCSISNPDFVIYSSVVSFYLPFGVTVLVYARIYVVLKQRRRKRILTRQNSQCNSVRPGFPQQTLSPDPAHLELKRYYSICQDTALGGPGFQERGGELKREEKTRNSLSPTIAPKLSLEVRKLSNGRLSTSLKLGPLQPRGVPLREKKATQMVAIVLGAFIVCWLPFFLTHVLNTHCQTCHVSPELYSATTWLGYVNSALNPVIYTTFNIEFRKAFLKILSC
Sequence of Cannabinoid receptor 1 (P21554 whole entry): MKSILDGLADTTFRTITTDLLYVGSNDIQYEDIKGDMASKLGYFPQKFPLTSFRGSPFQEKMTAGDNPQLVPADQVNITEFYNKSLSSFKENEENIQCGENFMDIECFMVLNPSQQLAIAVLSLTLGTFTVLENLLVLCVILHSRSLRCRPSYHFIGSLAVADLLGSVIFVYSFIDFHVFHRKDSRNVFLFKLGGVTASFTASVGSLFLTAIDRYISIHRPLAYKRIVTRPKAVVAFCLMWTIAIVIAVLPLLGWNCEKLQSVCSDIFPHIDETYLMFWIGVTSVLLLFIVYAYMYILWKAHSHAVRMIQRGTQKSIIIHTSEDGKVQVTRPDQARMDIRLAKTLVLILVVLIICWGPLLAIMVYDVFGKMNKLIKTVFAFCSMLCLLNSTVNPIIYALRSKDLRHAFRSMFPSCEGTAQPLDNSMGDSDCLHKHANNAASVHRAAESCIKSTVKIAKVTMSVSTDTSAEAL
Sequence of Motilin receptor (O43193 whole entry): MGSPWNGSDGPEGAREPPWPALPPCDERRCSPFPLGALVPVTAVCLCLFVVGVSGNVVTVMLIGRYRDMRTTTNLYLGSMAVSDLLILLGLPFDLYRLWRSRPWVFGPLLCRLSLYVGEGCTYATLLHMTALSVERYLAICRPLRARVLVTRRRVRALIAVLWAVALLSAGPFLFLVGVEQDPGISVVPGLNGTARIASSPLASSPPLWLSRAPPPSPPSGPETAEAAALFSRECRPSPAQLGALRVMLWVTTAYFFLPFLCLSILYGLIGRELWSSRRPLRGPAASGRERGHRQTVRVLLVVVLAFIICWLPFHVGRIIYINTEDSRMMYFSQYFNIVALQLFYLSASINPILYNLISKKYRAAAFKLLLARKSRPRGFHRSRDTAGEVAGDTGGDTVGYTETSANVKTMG

Regarding `CCN(CC)C(C)C(=O)c1ccccc1` (stereo not drawn) [DIETHYLPROPION], the AC50 in [1] was > 10 µM; in data set [2], > 10 µM; in data set [3], > 30 µM; in [4], > 30 µM; in data set [5], > 30 µM; in data set [6], > 30 µM. Also, the AC50 in [7] was > 30 µM; in data set [8], > 30 µM; in [9], > 30 µM; in data set [10] it was > 10 µM; in data set [11] (read-out: AC50), 6.5 µM.
As to `CC(=O)[C@@]1(O)CC[C@H]2[C@@H]3C[C@H](C)C4=CC(=O)C=C[C@]4(C)[C@@]3(F)[C@@H](O)C[C@@]21C` [FLUOROMETHOLONE], the AC50 in data set [1] is > 10 µM; in [2], > 10 µM; in [3], > 30 µM; in data set [4], > 10 µM; in data set [5], > 10 µM; in data set [6], > 30 µM. For the same molecule, the AC50 in data set [7] is > 30 µM; in data set [8], > 30 µM; in data set [9], > 30 µM; in [10], > 10 µM; in data set [11] (read-out: AC50), > 30 µM.
`CN1CCC(=C2c3ccccc3CC(=O)c3sccc32)CC1` [KETOTIFEN]: the AC50 was > 10 µM in data set [1]; > 10 µM in data set [2]; 3 µM in data set [3]; > 10 µM in data set [4]; > 10 µM in [5]; 16 µM in [6]. For the same molecule, the AC50 was 15 µM in data set [8], > 30 µM in [9], > 10 µM in data set [10] and 1.5 µM in data set [11] (read-out: AC50).
In the case of TEPRENONE, the AC50 in [1] was > 10 µM; in [2], > 10 µM; in data set [3], > 30 µM; in [4] it was > 30 µM; in data set [5], 16.1 µM; in data set [6], > 30 µM. The AC50 is > 30 µM in data set [7]; > 30 µM in data set [8]; > 30 µM in data set [9]; > 10 µM in data set [10]; > 30 µM in [11] (human, cellular components).
Turning to `CCCCOC(=O)c1ccc(N)cc1` [BUTAMBEN], the AC50 in [1] is > 30 µM; in data set [2], > 30 µM; in data set [3], > 30 µM; in data set [4] it was > 30 µM; in data set [5] it was 0.6 µM; in data set [6], > 30 µM. Moreover, the AC50 in [7], in data set [8], in [9], in [10] and in data set [11] (read-out: AC50) was > 30 µM each time.
Turning to `CC(C)(C)NCC(O)COc1cccc2c1CC(O)C(O)C2` (stereo not drawn) [NADOLOL], the AC50 in data set [1] was > 10 µM; in data set [2] it was > 10 µM; in data set [3], > 30 µM; in data set [4], > 10 µM; in [5], > 10 µM; in data set [6], > 30 µM. Also, the AC50 was > 30 µM in data set [7]; 7.7 µM in [8]; > 30 µM in data set [9]; > 10 µM in [10]; > 30 µM in [11] (read-out: AC50).
Consider `CN1C2CCCC1CC(NC(=O)c1nn(C)c3ccccc13)C2` (stereo not drawn) [GRANISETRON], for which the AC50 in data set [1] is > 10 µM; in data set [2], > 10 µM; in [3], > 10 µM; in data set [4] it was > 10 µM; in [5], > 30 µM; in data set [6], > 30 µM. Besides, the AC50 in data set [8] and in [9] was > 30 µM each time.
Regarding `CNCCc1ccccn1` [BETAHISTINE], the AC50 in data set [1], in [2], in [3], in [4], in [5] and in data set [6] was > 30 µM each time. For the same molecule, the AC50 in data set [7], in data set [8], in [9], in data set [10] and in data set [11] (read-out: AC50) was > 30 µM each time.
Regarding `CN1C(=O)CN=C(c2ccccc2F)c2cc([N+](=O)[O-])ccc21` [FLUNITRAZEPAM], the AC50 was > 10 µM in [1]; > 10 µM in [2]; > 30 µM in data set [3]; > 10 µM in [4]; > 30 µM in [5]; > 30 µM in [6]. In addition, the AC50 in data set [7] was > 10 µM; in data set [8], > 30 µM; in data set [9] it was > 30 µM; in [10] it was > 10 µM; in [11] (read-out: AC50) it was > 30 µM.
With `Cc1nnc2n1-c1ccc(Cl)cc1C(c1ccccc1)=NC2` [ALPRAZOLAM], the AC50 in data set [1] is > 10 µM; in data set [2], > 10 µM; in data set [3], > 10 µM; in [4], > 10 µM; in data set [5], > 30 µM; in data set [6], > 30 µM. Further, the AC50 was > 30 µM in data set [7]; > 30 µM in data set [8]; > 30 µM in data set [9]; > 10 µM in data set [10]; > 30 µM in data set [11] (read-out: AC50).
In the case of `CC1=C(CC(=O)O)c2cc(F)ccc2/C1=C\c1ccc([S+](C)[O-])cc1` (stereo not drawn), the AC50 in [1] was > 10 µM; in [2], > 10 µM; in data set [3] it was > 30 µM; in [4], > 30 µM; in [5] it was > 30 µM; in [6], > 30 µM. The AC50 in data set [7] is > 30 µM; in [8], > 30 µM; in [9], > 30 µM; in [10], > 10 µM; in data set [11] (read-out: AC50), > 30 µM.
On to `CC(C)CN(C[C@@H](O)[C@H](Cc1ccccc1)NC(=O)O[C@H]1CCOC1)S(=O)(=O)c1ccc(N)cc1`, for which the AC50 was 7.3 µM in data set [1]; > 10 µM in data set [2]; > 30 µM in [3]; > 10 µM in data set [4]; > 10 µM in data set [5]; 12 µM in [6]. Besides, the AC50 in [7] was > 30 µM; in data set [8] it was 12 µM; in [9] it was > 30 µM; in [10] it was > 30 µM; in data set [11] (read-out: AC50), > 30 µM.
For `CCOC(=O)C1=C(C)NC(C)=C(C(=O)OC)C1c1cccc(Cl)c1Cl` (stereo not drawn) [FELODIPINE], the AC50 was > 10 µM in data set [1]; > 10 µM in data set [2]; > 10 µM in data set [4]; > 30 µM in [5]; > 30 µM in data set [6]; > 10 µM in data set [7]. For the same molecule, the AC50 in data set [8] is > 30 µM; in [9] it was > 30 µM; in [10], > 10 µM; in data set [11] (read-out: AC50), > 30 µM.
